In article PMC8617031, “Development of a BCL-xL and BCL-2 dual degrader with improved anti-leukemic activity,” (Nature Communications, 2021):
Where “and” joins values, the source holds several entries; their conditions need not be identical. Identical values can stand only once.

What was measured:
BCL-2 = target: T1, BCL-2 (Homo sapiens, UniProt P10415); experiment: BCL-2 degradation by immunoblot in Kasumi-1 cells; type: cell-based; details: Fig. 7b; for BCL-2 level, bar graph (0 = 100): two replicate columns
T1 construct: endogenous in cells
Method: (§1) Tubulin was used as an equal loading control. […] For the viability assays, the data are presented as mean ± s.d. from three replicate cell cultures in a representative experiment. Similar results were also observed in two additional independent experiments. d Representative immunoblot analyses of Kasumi-1 cells 16 h after treatment as indicated. […] Data are representative of two independent experiments. The dotted line represents the value from DMSO-treated cells. Source data are provided as a Source data file.
(§2) Cells were collected, washed once with ice-cold phosphate-buffered saline, pH 7.2 (PBS, cat. no. 20012027; Thermo Fisher Scientific) and lysed in RIPA lysis buffer (Cat. No. BP-115DG, Boston Bio Products, Ashland, MA, USA) supplemented with protease and phosphatase inhibitor cocktails (Cat. No. PPC1010, Sigma-Aldrich, St. Louis, MO, USA) through sonication. The samples were centrifuged at 14,000 r.p.m. for 5 min and the supernatants were transferred into a new tube. The protein concentration in the supernatants was determined using the Pierce BCA protein Assay kit (cat. no. 23225, Thermo Fisher Scientific). The protein concentration was normalized, and the samples were reduced in 4× Laemmli’s SDS-sample buffer (cat. no. BP-110R, Boston Bio Products) and denatured at 95 °C for 5 min. An equal amount of protein samples (20–40 μg per lane) were resolved using precast 4–20% Tris-glycine gels (Mini-PROTEAN TGX, cat. no. 456–1094, Bio-Rad), and resolved proteins were transferred onto 0.2-µm pore size polyvinylidene difluoride (PVDF) blotting membranes (cat. no. LC2002, Thermo Fisher Scientific) using mini trans-blot electrophoretic transfer cell (Bio-Rad). The membranes were blocked with non-fat dry milk (5% wt/vol) in 1× Tris-buffered saline-Tween-20 (TBST, cat. no. J77500, Affymetrix) for 1 h at room temperature, and were subsequently probed with primary antibodies at a predetermined optimal concentration in non-fat dry milk (5% wt/vol in TBST) overnight at 4 °C. The membranes were washed three times (5 min each) in TBST and then incubated with horse radish peroxidase (HRP)-conjugated secondary antibodies for 1 h at room temperature. Following sufficient washing with TBST, the membranes were exposed with chemiluminescent HRP substrate (cat. no. WBKLS0500, MilliporeSigma), and the signal was detected using the ChemiDoc MP Imaging System (Bio-Rad) and quantified using the ImageJ (v1.53a) software from NIH.

BCL-xL = target: T2, BCL-xL (Homo sapiens, UniProt Q07817); experiment: BCL-xL degradation by immunoblot in Kasumi-1 cells; type: cell-based; details: Fig. 7b; for BCL-xL level, bar graph (0 = 100): two replicate columns
T2 construct: endogenous in cells
Method: as §1, §2

[1] = test system: Flag-BCL-xL (WT and lysine mutants); experiment: Degradation of Flag-BCL-xL WT and lysine mutants in transfected 293T cells; type: cell-based, human; details: DMSO = 100
Method: as §2
Plasmids were purified on miniprep columns according to the manufacturer’s protocol (Cat. No. 27106 Qiagen, Germantown, MD, USA). The construction of Flag-BCL-xL (pDL2009) and Flag-BCL-xL-K-ko (pDL2129) were described previously. Flag-BCL-2 was a gift from Clark Distelhorst (Addgene plasmid # 18003, Watertown, MA, USA). Plasmids Flag-BCL-xL-K16-only, Flag-BCL-xL-K20-only, Flag-BCL-xL-K157-only, Flag-BCL-xL-K-ko-R34K, Flag-BCL-xL-K-ko-R102K, Flag-BCL-xL-K-ko-R132K, Flag-BCL-xL-K-ko-G186K, Flag-BCL-2-K17R, Flag-BCL-2-K22R, and Flag-BCL-2-K17/22R were constructed by using Q5® Site-Directed Mutagenesis Kit (Cat. No. E0554S, NEB, Ipswich, MA, USA) and the following primer sets. Flag-BCL-xL-K-ko (pDL2129) or Flag-BCL-2 was used as the template. Flag-BCL-xL-K16-only: forward (5′-[…]a[…]-3′) and reverse (5′-[…]-3′); Flag-BCL-xL-K20-only: forward (5′-[…]a[…]-3′) and reverse (5′-[…]-3′); Flag-BCL-xL-K157-only: forward (5′-[…]a[…]-3′) and reverse (5′-[…]-3′); Flag-BCL-xL-R34K: forward (5′-[…]a[…]-3′) and reverse (5′-[…]-3′); Flag-BCL-xL-R102K: forward (5′-[…]aa[…]-3′) and reverse (5′-[…]-3′); Flag-BCL-xL-R132K: forward (5′-[…]aa[…]-3′) and reverse (5′-[…]-3′); Flag-BCL-xL-G186K: forward (5′-[…]aa[…]-3′) and reverse (5′-[…]-3′); Flag-BCL-2-K17R: forward (5′-[…]g[…]-3′) and reverse (5′-[…]-3′); Flag-BCL-2-K22R: forward (5′-[…]g[…]-3′) and reverse (5′-[…]-3′); Flag-BCL-2-K17/22R: forward (5′-cattatag[…]-3′) and reverse (5′-gatgtacc[…]-3′). DNA sequences in all these plasmids were authenticated by automatic sequencing. […] The cells were harvested using RIPA lysis buffer containing protease and phosphatase inhibitor as mentioned above. The primers used in this study are also listed in Supplementary Table 1.

T1 sequence (P10415 whole entry): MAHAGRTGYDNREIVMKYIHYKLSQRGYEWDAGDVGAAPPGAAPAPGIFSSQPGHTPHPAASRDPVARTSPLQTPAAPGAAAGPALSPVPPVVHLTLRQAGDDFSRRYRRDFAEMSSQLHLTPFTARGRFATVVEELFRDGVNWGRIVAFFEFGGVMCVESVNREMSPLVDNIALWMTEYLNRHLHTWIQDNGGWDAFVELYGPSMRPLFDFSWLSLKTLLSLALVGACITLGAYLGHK
T2 sequence (Q07817 whole entry): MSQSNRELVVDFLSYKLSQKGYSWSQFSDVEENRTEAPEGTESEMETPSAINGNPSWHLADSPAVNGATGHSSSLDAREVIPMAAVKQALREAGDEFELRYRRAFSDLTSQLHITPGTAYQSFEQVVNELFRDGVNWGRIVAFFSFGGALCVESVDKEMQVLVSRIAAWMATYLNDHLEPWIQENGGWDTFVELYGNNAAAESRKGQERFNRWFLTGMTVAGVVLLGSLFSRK

SMILES	BCL-2 level, bar graph (0 = 100) (BCL-2; concentration 0.01)	BCL-2 level, bar graph (0 = 100) (BCL-2; concentration 0.03)	BCL-2 level, bar graph (0 = 100) (BCL-2; concentration 0.1)	BCL-2 level, bar graph (0 = 100) (BCL-2; concentration 0.3)	BCL-2 level, bar graph (0 = 100) (BCL-2; concentration 1)	BCL-xL level, bar graph (0 = 100) (BCL-xL; concentration 0.01)	BCL-xL level, bar graph (0 = 100) (BCL-xL; concentration 0.03)	BCL-xL level, bar graph (0 = 100) (BCL-xL; concentration 0.1)	BCL-xL level, bar graph (0 = 100) (BCL-xL; concentration 0.3)	BCL-xL level, bar graph (0 = 100) (BCL-xL; concentration 1)	also measured
Cc1ncsc1-c1ccc([C@H](C)NC(=O)[C@@H]2C[C@@H](O)CN2C(=O)[C@@H](NC(=O)CCCCCCC(=O)N2CCN(C[C@]3(C)CCC(c4ccc(Cl)cc4)=C(CN4CCN(c5ccc(C(=O)NS(=O)(=O)c6ccc(N[C@H](CCN7CCOCC7)CSc7ccccc7)c(S(=O)(=O)C(F)(F)F)c6)cc5)CC4)C3)CC2)C(C)(C)C)cc1 [753b]	66 and 60	44 and 48	36 and 21	32 and 26	36 and 25	38 and 35	15 and 18	8 and 6	7 and 5	6 and 5	BCL-2 degradation in Kasumi-1 cells (in words) (BCL-2; Kasumi-1 cells, 16 h): could also degrade BCL-2; BCL-xL degradation in Kasumi-1 cells (in words) (BCL-xL; Kasumi-1 cells, 16 h, compared with DT2216): more potent BCL-xL degradation; relative Flag-BCL-xL protein content ([1]; K16-only mutant, 753b-treated 293T, Fig. 5a): 86 and 85 and 66; relative Flag-BCL-xL protein content ([1]; K20-only mutant, 753b-treated 293T, Fig. 5a): 29 and 42 and 46; relative Flag-BCL-xL protein content ([1]; WT Flag-BCL-xL, 753b-treated 293T, Fig. 5a, 3 replicates): 34 and 30 and 42
Cc1ncsc1-c1ccc([C@H](C)NC(=O)[C@@H]2C[C@@H](O)CN2C(=O)[C@@H](NC(=O)CCCCCC(=O)N2CCN(CC[C@H](CSc3ccccc3)Nc3ccc(S(=O)(=O)NC(=O)c4ccc(N5CCN(CC6=C(c7ccc(Cl)cc7)CCC(C)(C)C6)CC5)cc4)cc3S(=O)(=O)C(F)(F)F)CC2)C(C)(C)C)cc1 [DT2216]	96 and 105	90 and 102	92 and 98	91 and 99	80 and 89	86 and 92	59 and 63	38 and 33	22 and 25	11 and 12	relative Flag-BCL-xL protein content ([1]; K157-only mutant, DT2216-treated 293T, Fig. 1f): 91 and 97 and 105; relative Flag-BCL-xL protein content ([1]; K-ko mutant, DT2216-treated 293T, Fig. 1f): 95 and 102 and 90; relative Flag-BCL-xL protein content ([1]; K-ko-G186K mutant, DT2216-treated 293T, Fig. 1f): 81 and 88 and 95; relative Flag-BCL-xL protein content ([1]; K-ko-R34K mutant, DT2216-treated 293T, Fig. 1f): 50 and 41 and 44; relative Flag-BCL-xL protein content ([1]; K-ko-R102K mutant, DT2216-treated 293T, Fig. 1f): 64 and 57 and 51; relative Flag-BCL-xL protein content ([1]; K-ko-R132K mutant, DT2216-treated 293T, Fig. 1f): 55 and 50 and 58; relative Flag-BCL-xL protein content ([1]; WT Flag-BCL-xL, DT2216-treated 293T, Fig. 1f, 3 replicates): 7 and 33 and 22
